This note sets out measurements from PubChem BioAssay AID1200 (NMMLSC, 2008).

Activity calls are given as the source filed them. No rule for the calls is given here.

Test system in one assay: not listed separately
The experiment in a line: prostate cell loss as cytotoxicity readout, dose response, cytotoxicity control for prostate cell differentiation activator project, flow cytometry event count (AID 1200). To be noted: prostate cells, cell count (flow cytometry events), cytotoxicity; at 30 µM (top of the series). For orientation: In flow cytometry, cells or beads pass a laser one at a time.
Consider `CCN(CCNC(=O)C1CCN(Cc2nc(-c3cccc(Cl)c3)oc2C)CC1)c1ccccc1`, for which the cell count (% of control) is 141% (inactive).

Turning to `CCN(CCNC(=O)C1CCN(Cc2nc(-c3ccc(Cl)cc3)oc2C)CC1)c1ccccc1`, the cell count (% of control) is 22% (inactive).

Turning to `COc1ccc(-c2noc(CCC(=O)NCCCN3CCC(Cc4ccccc4)CC3)n2)cc1`, the cell count (% of control) was 276% (inactive).

For `COc1ccc(N2CCN(CCCNC(=O)CCCn3c(=O)[nH]c4ccsc4c3=O)CC2)cc1`, the cell count (% of control) is 330% (inactive).

`N=c1n(CCN2CCCCC2)c2ccccc2n1CC(O)COc1ccccc1` (stereo unspecified): the cell count (% of control) was 311% (inactive).

As for `CCn1c(=N)n(CC(O)COc2cccc(C)c2)c2ccccc21` (stereo unspecified), the cell count (% of control) was 266% (inactive).

With `Cc1ccc(CNc2nc3ccccc3n3nnnc23)cc1`, the cell count (% of control) was 348% (inactive).

With `CCOc1cccc2cc(-c3cn4cc(C)ccc4n3)c(=O)oc12`, the cell count (% of control) was 44.8% (inactive).

Consider `Cc1ccccc1CS(=O)(=O)CCC(=O)NCCCN1CCN(c2ccccc2F)CC1`, for which the cell count (% of control) is 854% (inactive).

On to `Cn1c(=O)[nH]c(=O)c2c1nc(Br)n2CCCSc1nc2ccccc2o1`, for which the cell count (% of control) was 227% (inactive).

On to `CCOc1ccc(NC(=O)COc2nsnc2N2CCCCC2)cc1`, for which the cell count (% of control) is 226% (inactive).

For `Clc1ccc(COC(Cn2ccnc2)c2ccc(Cl)cc2Cl)cc1` (stereo unspecified), the cell count (% of control) was 350% (inactive).

Consider `C[C@H]1CCC/C=C/C2C[C@H](O)CC2[C@H](O)/C=C/C(=O)O1` (stereo partly specified), for which the cell count (% of control) is 129% (inactive).

In the case of `COc1ccccc1NC(=O)c1nc[nH]c1C(=O)Nc1ccccc1OC`, the cell count (% of control) is 546% (inactive).

Consider `Cc1cc(N2CCN(C)CC2)nc2ccc(NC(=O)c3ccc4c(c3)OCO4)cc12`, for which the cell count (% of control) was 102% (inactive).

In the case of `COc1ccc(-c2noc(-c3cc(Cl)ccc3Cl)n2)cc1OC`, the cell count (% of control) is 347% (inactive).

Take `O=C(Cn1cc2c(n1)CCCC2)NCCCN1CCN(c2ccccc2F)CC1`: the cell count (% of control) was 382% (inactive).

Turning to `Cc1ccc(Nc2cc(=O)n(C3CCCCC3)c(=O)[nH]2)cc1C`, the cell count (% of control) is 196% (inactive).

For `Cc1cc(C)nc(N2CCC(C(=O)Nc3ccc(Oc4ccccc4)cc3)CC2)n1`, the cell count (% of control) is 264% (inactive).

As for `Cc1nc2ncnn2c(C)c1CCC(=O)NCCCN1CCN(c2cccc(Cl)c2)CC1`, the cell count (% of control) was 1150% (inactive).

Turning to `O=c1cc(-c2ccccc2)[nH]c2ccccc12`, the cell count (% of control) is 105% (inactive).

The subject of a further assay is prostate cells, cell count (flow cytometry events), cytotoxicity. Described as above.
Settings: not given
On to `Nc1ccc(-n2ccnc2)cc1`, for which the EC50 (in general, the concentration that produces a half-maximal response) was 1.04 µM (inactive).

For `COc1ccc(N2CCN(CCCNC(=O)CC3Oc4ccc(C)cc4NC3=O)CC2)cc1` (stereo unspecified), the EC50 is 3.54 µM (inactive).

Consider `CCN1CCN(CCNC(=O)C2CCN(Cc3nc(-c4ccc(Cl)cc4)oc3C)CC2)CC1`, for which the EC50 is 8.88 µM (inactive).

With `CCN1CCN(c2cc(C)c3cc(NC(=O)c4ccc(Br)o4)ccc3n2)CC1`, the half-maximal effective concentration (EC50) was 3.98 µM.

Regarding `CCOC(=O)c1[nH]c(C)c(C(=O)N2CCc3ccccc32)c1C`, the EC50 is 0.139 µM.

Turning to `Cc1ccccc1-c1nc(CN2CCC(C(=O)NCCCN3CCOCC3)CC2)c(C)o1`, the EC50 is 3.44 µM (inactive).

Consider `CCN(CC)CC(=O)Nc1ccc(-c2nc3cc(NC(=O)CN(CC)CC)ccc3o2)cc1`, for which the EC50 was 8.06 µM.

For the molecule `CCN1CCCC1CNC(=O)c1cc2c(-c3ccc(Cl)cc3)nn(C)c2s1` (stereo unspecified), the EC50 was 4.83 µM.

Take `O=C(CCN1C(=O)COc2ccccc21)NCCCN1CCN(c2ccc(F)cc2)CC1`: the EC50 is > 30 µM (inactive).

With `O=C(NCCCN1CCN(c2cccc(Cl)c2)CC1)c1cccc(N2CCCC2=O)c1`, the EC50 was 11.2 µM.
